Results on three molecules are retold here after article PMC12388506, “Preclinical Evaluation of 2-Aminobenzothiazole Derivatives: In Silico, In Vitro, and Preliminary In Vivo Studies as Diabetic Treatments and Their Complications” (Molecules, 2025).

The target in data set [1] is T1, ALR2 enzyme (Homo sapiens, UniProt P15121).
T1 construct: purchased ab273276
Kind of data set: ALR2 activity assay kit (ab273276), inhibition.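 On relative ALR2 inhibition: inhibition calculated from the rate of NADPH cofactor consumption.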 Type of data set: biochemical. The protocol: The obtained dose–response curve had concentrations of 10 μM, 5 μM, 500 nM, 50 nM, and 5 nM.

The target of data set [2] is T1, ALR2 enzyme. Kind of data set: ALR2 activity assay kit (ab273276), inhibition.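 On relative ALR2 inhibition: inhibition calculated from the rate of NADPH cofactor consumption.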 The data set is classed as biochemical. The conditions noted are these: Inhibitor concentration.
The next data set in a line: FRAP assay. Here is the method:
(§1) All synthesized compounds were evaluated at 30 μM, 50 μM, 70 μM, 90 μM, and 110 μM under two of the most widely used methods in research to directly measure the antioxidant and anti-radical intrinsic capacity, FRAP, and ABTS assay, which were validated by a dose–response curve of 5-ASA as a reference. In the same way, these tests were carried out in triplicate using an assay kit (from Pharmaceutical and Biotechnological Innovation-Services) according to the manufacturer’s instructions.

The nature of the next data set: ABTS assay. The protocol: as §1
The subject of the next data set is male Wistar rat. Description: Acute oral toxicity, Up and Down procedure (OECD 425). Type of data set: in vivo. Also on record: Heart weight / IWA (initial weight of animals) / FWA (final weight of animals) / Spleen weight / Liver weight / Intestine weight / Stomach weight / Kidney weight: unit not given here. To be noted: for FWA (final weight of animals): after 14 days; for Heart weight / Intestine weight / Kidney weight / Liver weight / Spleen weight / Stomach weight: necropsy; for toxicity category (OECD): maximum dose 1250 mg/Kg oral. Here is the method:
All synthesized compounds (8c, 8d, and 12d as a racemic mixture) were suspended in 2% Tween 80 in water and administered orally by an esophageal cannula following the “Up and Down” methodology. Nevertheless, compounds could not be solubilized in the desired volume to complete the highest dose (1750 mg/Kg), so the toxicity test was performed with a maximum dose of 1250 mg/Kg. Even so, the values obtained indicate that these compounds are classified within toxicity category 4 according to the guidelines established by the Organization for Economic Co-operation and Development (OECD).
The “Up and Down” procedure of OECD Guideline 425 was used to estimate the LD50 value of synthesized compounds. Briefly, a dose of 175 mg/Kg was administered to a male Wistar rat, which was monitored continuously for 48 h. As the animal survived, a second animal received a dose of 550 mg/Kg, and, as it survived, a third animal received an increasing dose of 1750 mg/Kg. Finally, two other rats were administered the same dose. All animals were kept under observation for 14 days, and 24 h later, they were taken to the humane endpoint for macroscopic examination of organs and tissues. Finally, the LD50 value of the compounds was estimated to determine their degree of toxicity and classified based on the GHS of Classification and Labeling of Chemicals.

Setting [3] is: Inhibitor concentration 5000 nm.
The mark [4] stands for this setting: Inhibitor concentration 10000 nm.

`CC(/C=C1\SC(=S)N(CC(=O)O)C1=O)=C\c1ccccc1` [Epa, epalrestat, reference compound]: the “relative ALR2 inhibition” value at ALR2 enzyme [1] (Inhibitor concentration 5 nm) was 5.000%; at ALR2 enzyme [1] (Inhibitor concentration 50 nm) it was 5.288%; at ALR2 enzyme [1] (Inhibitor concentration 500 nm) it was 12.513%; on ALR2 enzyme [1] (setting [3]), 58.372%; at ALR2 enzyme [1] (setting [4]), 100.000%; on ALR2 enzyme [2], 3.000%.

As for `COC(=O)[C@@H](N/C(=N\c1nc2ccccc2s1)SC)c1ccccc1` [8c, Methyl (S,E)-2-(((benzo[d]thiazol-2-ylimino)(methylthio)methyl)amino)-2-phenylacetate], the “concentrations at which ALR2 was inhibited” value on ALR2 enzyme [1] is given as “below 10 µM”. Also, the “concentration dependence of ALR2 inhibition (IC50 not calculable)” value on ALR2 enzyme [1] (10 μM to 5 nM) was “did not show a concentration-dependent response”. Further, the “relative ALR2 inhibition” value came to 82.945% at ALR2 enzyme [1] (Inhibitor concentration 5 nm); 85.158% at ALR2 enzyme [1] (Inhibitor concentration 50 nm); 68.371% at ALR2 enzyme [1] (Inhibitor concentration 500 nm); 53.000% at ALR2 enzyme [1] (setting [3]); 90.000% at ALR2 enzyme [2]. Also, the “Percentage reduction of ferric ion to ferrous ion (FRAP)” value in “FRAP assay” (30 µM) came to 13.2%; in the data set “FRAP assay” (50 µM), 14.4%; in “FRAP assay” (70 µM) it was 15.5%; in “FRAP assay” (90 µM), 19.6%; in “FRAP assay” (110 µM), 20.2%. Moreover, the “Percentage reduction of radical cation ABTS” value in “ABTS assay” (30 µM) is recorded as -3.5%; in “ABTS assay” (50 µM), -3.9%; in the data set “ABTS assay” (70 µM) it was -3.8%; in “ABTS assay” (90 µM), -2.9%; in “ABTS assay” (110 µM), -2.8%. The “FWA (final weight of animals)” value with male Wistar rat (1250 mg/Kg oral, mean ± SEM) is given as 204.37 ± 1.47. This molecule also returned a Heart weight in the data set on male Wistar rat (1250 mg/Kg oral, mean ± SEM) of 1.07 ± 0.17. Besides, the Intestine weight in the data set on male Wistar rat (1250 mg/Kg oral, mean ± SEM) was found to be 30.20 ± 1.50. This molecule also came in with a Kidney weight in the data set with male Wistar rat (1250 mg/Kg oral, mean ± SEM) of 2.57 ± 0.27. In the data set on male Wistar rat (1250 mg/Kg oral, mean ± SEM), this molecule yielded a Liver weight of 18.87 ± 1.47. Besides, the Spleen weight in the data set on male Wistar rat (1250 mg/Kg oral, mean ± SEM) came to 0.73 ± 0.03. In the data set with male Wistar rat (1250 mg/Kg oral, mean ± SEM), this molecule returned a Stomach weight of 1.57 ± 0.07. The “toxicity category (OECD)” value with male Wistar rat amounted to 4.

For the molecule `CNC(=O)C(Cc1ccccc1)N/C(=N\c1nc2ccccc2s1)SC` (racemic) [12d, Methyl (RS, E)-N’-(benzo[d]thiazol-2-yl)-N-(1-(methylamino)-1-oxo-3-phenylpropan-2-yl)carbamimidothioate], the “relative ALR2 inhibition” value is 29.534% on ALR2 enzyme [1] (Inhibitor concentration 5 nm); 32.532% on ALR2 enzyme [1] (Inhibitor concentration 50 nm); 33.993% on ALR2 enzyme [1] (Inhibitor concentration 500 nm); 48.448% at ALR2 enzyme [1] (setting [3]); 86.455% on ALR2 enzyme [1] (setting [4]); 32.814% on ALR2 enzyme [2]. For the same molecule, the “Percentage reduction of ferric ion to ferrous ion (FRAP)” value in “FRAP assay” (30 µM) was 0.19%; in “FRAP assay” (50 µM), 0.20%; in “FRAP assay” (70 µM), 0.18%; in “FRAP assay” (90 µM), 0.20%. In addition, the “Percentage reduction of radical cation ABTS” value is -3.4% in “ABTS assay” (30 µM); -3.7% in the data set “ABTS assay” (50 µM); -2.3% in the data set “ABTS assay” (70 µM); -3.1% in the data set “ABTS assay” (90 µM); -1.9% in the data set “ABTS assay” (110 µM). In addition, the “FWA (final weight of animals)” value with male Wistar rat (1250 mg/Kg oral, mean ± SEM) is listed as 309.67 ± 4.67. Further, the “IWA (initial weight of animals)” value in the data set with male Wistar rat (1250 mg/Kg oral, mean ± SEM) was determined as 208.47 ± 6.47. The same molecule registered a Heart weight in the data set with male Wistar rat (1250 mg/Kg oral, mean ± SEM) of 1.23 ±0.13. In the data set with male Wistar rat (1250 mg/Kg oral, mean ± SEM), this molecule showed an Intestine weight of 29.10 ± 0.50. Besides, the Kidney weight with male Wistar rat (1250 mg/Kg oral, mean ± SEM) turned out to be 2.87 ± 0.067. Further, in the data set with male Wistar rat (1250 mg/Kg oral, mean ± SEM), the Liver weight is given as 19.33 ± 0.03. The molecule further registered a Spleen weight with male Wistar rat (1250 mg/Kg oral, mean ± SEM) of 0.83 ± 0.03. In the data set on male Wistar rat (1250 mg/Kg oral, mean ± SEM), the Stomach weight came to 1.53 ± 0.07. The “toxicity category (OECD)” value in the data set with male Wistar rat is listed as 4.
